Source: ChEMBL document CHEMBL1201862, “PubChem BioAssay data set” (2004)
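Protocol summary: plate cells (96-well), add compound at 5 concentrations, incubate 48 h, interpolate endpoints linearly. GI50 is the concentration that inhibits growth by half.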 Calls of active or inactive are those of the source. Rule as the data show it: active = GI50 up to about 1.1 µM and inactive = higher.

What was measured:
Assay in all cases: inhibition of tumour cell growth, NCI panel, 48 h
[1] = tested on: 786-0
[2] = tested on: A498
[3] = tested on: A549
[4] = tested on: ACHN
[5] = tested on: BT-549
[6] = tested on: CAKI-1
[7] = tested on: CCRF-CEM
[8] = tested on: COLO 205
[9] = tested on: DU-145
[10] = tested on: EKVX
[11] = tested on: HCC 2998
[12] = tested on: HCT-116
[13] = tested on: HCT-15
[14] = tested on: HL-60
[15] = tested on: HOP-62
[16] = tested on: HOP-92
[17] = tested on: HT-29
[18] = tested on: Hs-578T
[19] = tested on: IGROV-1
[20] = tested on: K562
[21] = tested on: KM12
[22] = tested on: LOX IMVI
[23] = tested on: M14
[24] = tested on: MCF7
[25] = tested on: MDA-MB-231
[26] = tested on: MDA-MB-435
[27] = tested on: MDA-N
[28] = tested on: MOLT-4
[29] = tested on: Malme-3M
[30] = tested on: NCI-H226
[31] = tested on: NCI-H23
[32] = tested on: NCI-H460
[33] = tested on: NCI-H522
[34] = tested on: NCI/ADR-RES
[35] = tested on: OVCAR-3
[36] = tested on: OVCAR-4
[37] = tested on: OVCAR-5
[38] = tested on: OVCAR-8
[39] = tested on: PC-3
[40] = tested on: RPMI-8226
[41] = tested on: RXF 393
[42] = tested on: SF-268
[43] = tested on: SF-295
[44] = tested on: SF-539
[45] = tested on: SK-MEL-28
[46] = tested on: SK-MEL-2
[47] = tested on: SK-MEL-5
[48] = tested on: SK-OV-3
[49] = tested on: SN12C
[50] = tested on: SNB-19
[51] = tested on: SNB-75
[52] = tested on: SR
[53] = tested on: SW-620
[54] = tested on: T47D
[55] = tested on: TK-10
[56] = tested on: U-251
[57] = tested on: UACC-257
[58] = tested on: UACC-62
[59] = tested on: UO-31

## CCN(CC)CCCNc1c2cc(OC)ccc2nc2cccc([N+](=O)[O-])c12
[1]
  GI50: 71 nM (active)
[2]
  GI50: 12.7 nM (active)
[3]
  GI50: 65 nM (active)
[4]
  GI50: 40.7 nM (active)
[5]
  GI50: 200 nM (active)
[6]
  GI50: 210 nM (active)
[7]
  GI50: 128 nM (active)
[8]
  GI50: 23.8 nM (active)
[9]
  GI50: 55.1 nM (active)
[10]
  GI50: 163 nM (active)
[11]
  GI50: 65.5 nM (active)
[12]
  GI50: 32.7 nM (active)
[13]
  GI50: 67.6 nM
[14]
  GI50: 158 nM (active)
[15]
  GI50: 156 nM (active)
[16]
  GI50: 48.4 nM (active)
[17]
  GI50: 45.6 nM (active)
[18]
  GI50: 138 nM (active)
[19]
  GI50: 102 nM (active)
[20]
  GI50: 6.43 nM (active)
[21]
  GI50: 110 nM (active)
[22]
  GI50: 24 nM (active)
[23]
  GI50: 93.8 nM (active)
[24]
  GI50: 33.3 nM (active)
[25]
  GI50: 122 nM (active)
[26]
  GI50: 99.5 nM (active)
[27]
  GI50: 129 nM (active)
[28]
  GI50: 27.4 nM (active)
[29]
  GI50: 118 nM (active)
[30]
  GI50: 204 nM (active)
[31]
  GI50: 74.6 nM (active)
[32]
  GI50: 18.4 nM (active)
[33]
  GI50: 6.58 nM (active)
[34]
  GI50: 274 nM (active)
[35]
  GI50: 34 nM (active)
[36]
  GI50: 26.1 nM (active)
[37]
  GI50: 83.2 nM (active)
[38]
  GI50: 90.4 nM (active)
[39]
  GI50: 54.3 nM (active)
[40]
  GI50: 53.5 nM (active)
[41]
  GI50: 55.7 nM (active)
[42]
  GI50: 84.1 nM (active)
[43]
  GI50: 147 nM (active)
[44]
  GI50: 141 nM (active)
[45]
  GI50: 231 nM (active)
[46]
  GI50: 101 nM (active)
[47]
  GI50: 93.5 nM (active)
[48]
  GI50: 246 nM (active)
[49]
  GI50: 110 nM (active)
[50]
  GI50: 286 nM (active)
[51]
  GI50: 151 nM (active)
[52]
  GI50: 6.12 nM (active)
[53]
  GI50: 35.2 nM (active)
[54]
  GI50: 151 nM (active)
[55]
  GI50: 195 nM (active)
[56]
  GI50: 82 nM (active)
[57]
  GI50: 227 nM (active)
[58]
  GI50: 166 nM (active)
[59]
  GI50: 40.2 nM (active)

## CCCC(=O)Nc1cc(/C=C/C(=O)N2CC(CCl)c3c2cc(O)c2[nH]cc(C)c32)n(C)c1 (configuration not stated)
[1]
  GI50: < 0.025 nM (active)
[2]
  GI50: < 0.025 nM (active)
[3]
  GI50: < 0.025 nM (active)
[4]
  GI50: < 0.025 nM (active)
[5]
  GI50: < 0.025 nM (active)
[6]
  GI50: < 0.025 nM (active)
[7]
  GI50: < 0.025 nM (active)
[8]
  GI50: < 0.025 nM (active)
[9]
  GI50: < 0.025 nM (active)
[10]
  GI50: < 0.025 nM (active)
[11]
  GI50: < 0.025 nM (active)
[12]
  GI50: < 0.025 nM (active)
[13]
  GI50: 0.117 nM
[14]
  GI50: < 0.025 nM (active)
[15]
  GI50: < 0.025 nM (active)
[16]
  GI50: < 0.025 nM (active)
[17]
  GI50: < 0.025 nM (active)
[18]
  GI50: < 0.025 nM (active)
[19]
  GI50: < 0.025 nM (active)
[20]
  GI50: 0.0379 nM (active)
[21]
  GI50: < 0.025 nM (active)
[22]
  GI50: < 0.025 nM (active)
[23]
  GI50: < 0.025 nM (active)
[24]
  GI50: < 0.025 nM (active)
[25]
  GI50: < 0.025 nM (active)
[26]
  GI50: < 0.025 nM (active)
[27]
  GI50: < 0.025 nM (active)
[28]
  GI50: < 0.025 nM (active)
[29]
  GI50: < 0.025 nM (active)
[30]
  GI50: < 0.025 nM (active)
[31]
  GI50: < 0.025 nM (active)
[32]
  GI50: < 0.025 nM (active)
[33]
  GI50: < 0.025 nM (active)
[34]
  GI50: 0.0964 nM (active)
[35]
  GI50: < 0.025 nM (active)
[36]
  GI50: < 0.025 nM (active)
[37]
  GI50: < 0.025 nM (active)
[38]
  GI50: < 0.025 nM (active)
[39]
  GI50: < 0.025 nM (active)
[40]
  GI50: 0.0549 nM (active)
[41]
  GI50: < 0.025 nM (active)
[42]
  GI50: < 0.025 nM (active)
[43]
  GI50: < 0.025 nM (active)
[44]
  GI50: < 0.025 nM (active)
[45]
  GI50: < 0.025 nM (active)
[46]
  GI50: < 0.025 nM (active)
[47]
  GI50: < 0.025 nM (active)
[48]
  GI50: < 0.025 nM (active)
[49]
  GI50: < 0.025 nM (active)
[50]
  GI50: < 0.025 nM (active)
[51]
  GI50: < 0.025 nM (active)
[52]
  GI50: < 0.025 nM (active)
[53]
  GI50: < 0.025 nM (active)
[54]
  GI50: < 0.025 nM (active)
[55]
  GI50: < 0.025 nM (active)
[56]
  GI50: < 0.025 nM (active)
[57]
  GI50: < 0.025 nM (active)
[58]
  GI50: < 0.025 nM (active)
[59]
  GI50: < 0.025 nM (active)

## CC/C(Cl)=N\OC(=O)Nc1ccc(F)c(Cl)c1
[1]
  GI50: 7100 nM (inactive)
[2]
  GI50: 16200 nM (inactive)
[3]
  GI50: 21300 nM (inactive)
[4]
  GI50: 13800 nM (inactive)
[5]
  GI50: 16600 nM (inactive)
[6]
  GI50: 5210 nM (inactive)
[7]
  GI50: 2040 nM (inactive)
[8]
  GI50: 2820 nM (inactive)
[9]
  GI50: 19700 nM (inactive)
[10]
  GI50: 18200 nM (inactive)
[11]
  GI50: 18700 nM (inactive)
[12]
  GI50: 14000 nM (inactive)
[13]
  GI50: 15200 nM
[14]
  GI50: 1830 nM (inactive)
[15]
  GI50: 19000 nM (inactive)
[16]
  GI50: 4380 nM (inactive)
[17]
  GI50: 24000 nM (inactive)
[18]
  GI50: 39400 nM (inactive)
[19]
  GI50: 16300 nM (inactive)
[20]
  GI50: 1840 nM (inactive)
[21]
  GI50: 17200 nM (inactive)
[22]
  GI50: 4910 nM (inactive)
[23]
  GI50: 2380 nM (inactive)
[24]
  GI50: 7100 nM (inactive)
[25]
  GI50: 20000 nM (inactive)
[26]
  GI50: 21200 nM (inactive)
[27]
  GI50: 18200 nM (inactive)
[28]
  GI50: 1480 nM (inactive)
[29]
  GI50: 4660 nM (inactive)
[30]
  GI50: 24400 nM (inactive)
[31]
  GI50: 21200 nM (inactive)
[32]
  GI50: 17700 nM (inactive)
[33]
  GI50: 1870 nM (inactive)
[34]
  GI50: 19500 nM (inactive)
[35]
  GI50: 2590 nM (inactive)
[36]
  GI50: 14500 nM (inactive)
[37]
  GI50: 16500 nM (inactive)
[38]
  GI50: 17700 nM (inactive)
[39]
  GI50: 16000 nM (inactive)
[40]
  GI50: 3350 nM (inactive)
[41]
  GI50: 12100 nM (inactive)
[42]
  GI50: 15700 nM (inactive)
[43]
  GI50: 18200 nM (inactive)
[44]
  GI50: 19800 nM (inactive)
[45]
  GI50: 15600 nM (inactive)
[46]
  GI50: 17300 nM (inactive)
[47]
  GI50: 15600 nM (inactive)
[48]
  GI50: 18500 nM (inactive)
[49]
  GI50: 18000 nM (inactive)
[50]
  GI50: 14400 nM (inactive)
[51]
  GI50: 12200 nM (inactive)
[52]
  GI50: 4990 nM (inactive)
[53]
  GI50: 2550 nM (inactive)
[54]
  GI50: 7890 nM (inactive)
[55]
  GI50: 17500 nM (inactive)
[56]
  GI50: 17200 nM (inactive)
[57]
  GI50: 17300 nM (inactive)
[58]
  GI50: 20600 nM (inactive)
[59]
  GI50: 18300 nM (inactive)
